This assay concerns CD8 T cells of HLA-A*0201-transgenic HHD mice. Type of assay: in vivo, mouse.

“1: native hTERT peptide, start position 540 (540–548) (ILAKFLHWL) [Peptide 1]”: the “Immunogenicity when coupled to the surface of the liposomes” value (HHD mice) was “no immunogenicity”.

Consider “14: heteroclitical peptide derived from #13 (p944) (LQAYRFHAV) [Peptide 14]”, for which the “CD8 T-cell immune responses against the native epitope, peptide emulsified in IFA” value (injected in HHD mice) is on record as “only weak”.
